# From patent US20240228491A1, “METHIONINE ADENOSYLTRANSFERASE INHIBITOR, PREPARATION METHOD THEREFOR AND APPLICATION THEREOF” (SCINNOHUB PHARMACEUTICAL CO., LTD., priority 2021, published 2024)
# Read-outs that look alike come from different tables or passages of the source.
# Assays:
# MAT2a = MAT2a (Homo sapiens (Human), UniProt P31153); test: MAT2a enzymatic activity test (colorimetric assay); type: biochemical; conditions: OD620, 150 min reaction, read-out: IC50 against MAT2a
# Summary of the method: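 MAT2a (20 μg/mL working solution) was preincubated 15 min with compound (10-point, 3-fold series from 1 or 10 μM) in Tris/KCl/MgCl2 buffer, pH 8.0. Reaction with 400 μM ATP and 600 μM L-methionine (substrate-mix concentrations) ran 150 min. Phosphate was detected by BIOMOL Green at OD620, with IC50 from log(inhibitor)-response fitting.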
# [1] = In vivo pharmacokinetic study in ICR mice; conditions: plasma; for AUC(0-t): read-out: Area under curve AUC(0-t); for Cmax: read-out: Maximal concentration Cmax
# Protocol: Species: ICR mice, SPF grade. Source: Shanghai Xipuer-Bikai Laboratory Animal Co., Ltd. Number: 3 mice per dosage form.
# (§1) 2.1 An appropriate amount of the test sample was accurately weighed, into which 5% DMSO, 10% polyethylene glycol-15 hydroxystearate, 85% normal saline (all in volume percent) were added sequentially, and were fully mixed via vortex or ultrasound, to obtain the dosing solution with a test sample concentration of 0.4 mg/mL for intravenous administration.
# as §1, with “2.2” for “2.1”, “1” for “0.4”, “oral gavage” for “intravenous”
# Weighing was performed before administration, and the administration amount was calculated according to the body weight. The drug was administered orally by gavage or intravenously.
# Before and 0.083 h, 0.25 h, 0.5 h, 1 h, 2 h, 4 h, 6 h, 8 h, 24 h after administration.
# Blood was collected via submandibular vein or other suitable means, and approximately 0.03 mL per sample was collected via anticoagulation with heparin sodium. Blood samples were placed on ice after collection and centrifuged to separate plasma within 1 h (centrifugation conditions: centrifugal force of 6800 g, 6 min, 2-8° C.). The collected plasma samples were stored in a −80° C. refrigerator before analysis, and the remaining plasma samples continued to be stored in a −80° C. refrigerator for temporary storage after analysis.
# When plot the plasma concentration-time curve according to the detected plasma concentration of the test substance, BLQ (Beneath Limit of Quantification) was recorded as 0. When calculating pharmacokinetic parameters, the concentration before administration was calculated as 0; BLQ (including “No peak”) before Cmax was calculated as 0; BLQ (including “No peak”) after Cmax was not involved in the calculation. Pharmacokinetic parameters, such as AUC(0-t), T1/2, Cmax, etc., were calculated by WinNonlin using the plasma concentration data at different time points.
# Sequence of MAT2a (P31153 whole entry): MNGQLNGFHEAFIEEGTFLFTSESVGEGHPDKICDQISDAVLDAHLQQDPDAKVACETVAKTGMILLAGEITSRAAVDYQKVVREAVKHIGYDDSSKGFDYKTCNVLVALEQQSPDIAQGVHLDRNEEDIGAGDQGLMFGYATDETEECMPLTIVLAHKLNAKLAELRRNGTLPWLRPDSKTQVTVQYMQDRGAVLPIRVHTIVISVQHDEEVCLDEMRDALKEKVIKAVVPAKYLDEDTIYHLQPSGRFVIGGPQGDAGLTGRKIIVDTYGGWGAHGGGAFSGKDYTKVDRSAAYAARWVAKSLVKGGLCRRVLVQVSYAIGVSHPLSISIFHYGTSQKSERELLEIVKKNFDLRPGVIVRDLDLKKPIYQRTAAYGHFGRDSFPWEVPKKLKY
smiles,measurement,setting,value
Nc1c(-c2ccc3nccnc3c2)c(=O)n(-c2ccc(Cl)cc2)c2nc(C(F)(F)F)ccc12 [Example 36],IC50,MAT2a,13.6 nM
same,Apparent clearance rate Cl,[1]; IV 2 mg/kg,1.03 mL/min/kg
same,AUC(0-t),"[1]; mouse, IV 2 mg/kg",31.7 µg·h/mL
same,half-life,"[1]; mouse, IV 2 mg/kg, read-out: Half life T1/2 (converted)",5.53 h
same,Cmax,"[1]; mouse, IV 2 mg/kg",3540 ng/mL
same,AUC(0-t),"[1]; mouse, PO 10 mg/kg",211 µg·h/mL
same,half-life,"[1]; mouse, PO 10 mg/kg, read-out: Half life t1/2 (converted)",9.32 h
same,Cmax,"[1]; mouse, PO 10 mg/kg",18100 ng/mL
same,bioavailability,"[1]; mouse, PO 10 mg/kg vs IV 2 mg/kg, read-out: Bioavailability F %",133%
